Organism: Rattus norvegicus
Assay: Open TG-GATES - Regimen: Single
Assay type: toxicity, organism-based, Sprague-Dawley
Design: regimen Single, gender Male, age 6 weeks
Conditions: in vivo, po, 0 mg/kg, route gavage, dose level Control; for APTT / Bas / Eos / Fbg / Hb / Ht / Lym / MCH / MCHC / MCV / Mono / Neu / PT / Plat / RBC / Ret / WBC: tissue Blood; for KIDNEY_L / KIDNEY_R / KIDNEY_TOTAL: tissue Kidney; for LIVER: tissue Liver; for A/G / ALP / ALT / AST / BUN / CRE / Ca / Cl / DBIL / GLC / IP / K / LDH / Na / PL / RALB / TBIL / TC / TG / TP / gamma-GTP: tissue Plasma

CCO [ALCOHOL]
TERMINAL_BW (3 h): 207 g | APTT (3 h): 17.7 s | Bas (3 h): 0% | Eos (3 h): 1% | Fbg (3 h): 200.4 mg/dL | Hb (3 h): 13.3 g/dL | Ht (3 h): 39.9% | Lym (3 h): 76% | MCH (3 h): 21.5 pg | MCHC (3 h): 33.4% | MCV (3 h): 64.2 fL | Mono (3 h): 7.6% | Neu (3 h): 15.2% | PT (3 h): 12 s | Plat (3 h): 110.3 x10_4/uL | RBC (3 h): 622.4 x10_4/ul | Ret (3 h): 8.9% | WBC (3 h): 99.3 x10_2/uL | KIDNEY_L (3 h): 0.9 g | KIDNEY_R (3 h): 1 g | KIDNEY_TOTAL (3 h): 1.9 g | LIVER (3 h): 9.6 g | A/G (3 h): 2.7 | ALP (3 h): 951 IU/L | ALT (3 h): 39.2 IU/L | AST (3 h): 69 IU/L | BUN (3 h): 13 mg/dL | CRE (3 h): 0.5 mg/dL | Ca (3 h): 10.8 mg/dL | Cl (3 h): 103.8 meq/L | DBIL (3 h): 0.02 mg/dL | GLC (3 h): 192 mg/dL | IP (3 h): 8.7 mg/dL | K (3 h): 4.5 meq/L | LDH (3 h): 103.2 IU/L | Na (3 h): 140 meq/L | PL (3 h): 145.8 mg/dL | RALB (3 h): 3.9 g/dL | TBIL (3 h): 0.4 mg/dL | TC (3 h): 83.8 mg/dL | TG (3 h): 59.6 mg/dL | TP (3 h): 5.3 g/dL | gamma-GTP (3 h): 1.4 IU/L | TERMINAL_BW (6 h): 207 g | APTT (6 h): 18.8 s | Bas (6 h): 0% | Eos (6 h): 1% | Fbg (6 h): 212 mg/dL | Hb (6 h): 13.9 g/dL | Ht (6 h): 41.4% | Lym (6 h): 74% | MCH (6 h): 21.8 pg | MCHC (6 h): 33.5% | MCV (6 h): 64.9 fL | Mono (6 h): 9.2% | Neu (6 h): 15.8% | PT (6 h): 11.8 s | Plat (6 h): 116.1 x10_4/uL | RBC (6 h): 638.8 x10_4/ul | Ret (6 h): 10.4% | WBC (6 h): 90.5 x10_2/uL | KIDNEY_L (6 h): 0.9 g | KIDNEY_R (6 h): 1 g | KIDNEY_TOTAL (6 h): 1.9 g | LIVER (6 h): 9.6 g | A/G (6 h): 2.4 | ALP (6 h): 727.6 IU/L | ALT (6 h): 32.4 IU/L | AST (6 h): 58.2 IU/L | BUN (6 h): 11 mg/dL | CRE (6 h): 0.5 mg/dL | Ca (6 h): 10.4 mg/dL | Cl (6 h): 105.2 meq/L | DBIL (6 h): 0.06 mg/dL | GLC (6 h): 184.8 mg/dL | IP (6 h): 9.6 mg/dL | K (6 h): 4.8 meq/L | LDH (6 h): 62 IU/L | Na (6 h): 139.6 meq/L | PL (6 h): 141.8 mg/dL | RALB (6 h): 3.8 g/dL | TBIL (6 h): 0.4 mg/dL | TC (6 h): 80.8 mg/dL | TG (6 h): 55 mg/dL | TP (6 h): 5.4 g/dL | gamma-GTP (6 h): 2 IU/L | TERMINAL_BW (9 h): 201.1 g | APTT (9 h): 20.7 s | Bas (9 h): 0% | Eos (9 h): 1% | Fbg (9 h): 199.2 mg/dL | Hb (9 h): 13.5 g/dL | Ht (9 h): 40.1% | Lym (9 h): 66% | MCH (9 h): 21.8 pg | MCHC (9 h): 33.7% | MCV (9 h): 64.6 fL | Mono (9 h): 9.2% | Neu (9 h): 23.6% | PT (9 h): 12.2 s | Plat (9 h): 112.2 x10_4/uL | RBC (9 h): 620.8 x10_4/ul | Ret (9 h): 11.7% | WBC (9 h): 75.4 x10_2/uL | KIDNEY_L (9 h): 0.9 g | KIDNEY_R (9 h): 0.9 g | KIDNEY_TOTAL (9 h): 1.9 g | LIVER (9 h): 8.3 g | A/G (9 h): 2.8 | ALP (9 h): 861 IU/L | ALT (9 h): 30.8 IU/L | AST (9 h): 66.8 IU/L | BUN (9 h): 13.4 mg/dL | CRE (9 h): 0.5 mg/dL | Ca (9 h): 10.7 mg/dL | Cl (9 h): 106.4 meq/L | DBIL (9 h): 0.038 mg/dL | GLC (9 h): 196.2 mg/dL | IP (9 h): 9.8 mg/dL | K (9 h): 5.1 meq/L | LDH (9 h): 74.6 IU/L | Na (9 h): 137.4 meq/L | PL (9 h): 133.4 mg/dL | RALB (9 h): 3.9 g/dL | TBIL (9 h): 0.4 mg/dL | TC (9 h): 74 mg/dL | TG (9 h): 46.6 mg/dL | TP (9 h): 5.3 g/dL | gamma-GTP (9 h): 2 IU/L | TERMINAL_BW (24 h): 219 g | APTT (24 h): 17.7 s | Bas (24 h): 0% | Eos (24 h): 1.4% | Fbg (24 h): 207.4 mg/dL | Hb (24 h): 13.5 g/dL | Ht (24 h): 39.6% | Lym (24 h): 74.8% | MCH (24 h): 22.3 pg | MCHC (24 h): 34% | MCV (24 h): 65.6 fL | Mono (24 h): 9.8% | Neu (24 h): 14.6% | PT (24 h): 11.6 s | Plat (24 h): 115.5 x10_4/uL | RBC (24 h): 604 x10_4/ul | Ret (24 h): 10% | WBC (24 h): 101.6 x10_2/uL | KIDNEY_L (24 h): 1 g | KIDNEY_R (24 h): 1 g | KIDNEY_TOTAL (24 h): 2 g | LIVER (24 h): 10.4 g | A/G (24 h): 2.6 | ALP (24 h): 862 IU/L | ALT (24 h): 39.8 IU/L | AST (24 h): 64.8 IU/L | BUN (24 h): 17.2 mg/dL | CRE (24 h): 0.5 mg/dL | Ca (24 h): 10.9 mg/dL | Cl (24 h): 103.4 meq/L | DBIL (24 h): 0.006 mg/dL | GLC (24 h): 194.4 mg/dL | IP (24 h): 8.5 mg/dL | K (24 h): 4.7 meq/L | LDH (24 h): 87.8 IU/L | Na (24 h): 139 meq/L | PL (24 h): 150.2 mg/dL | RALB (24 h): 4 g/dL | TBIL (24 h): 0.3 mg/dL | TC (24 h): 83 mg/dL | TG (24 h): 100.8 mg/dL | TP (24 h): 5.5 g/dL | gamma-GTP (24 h): 1.4 IU/L
